Data taken from patent publication US10201510B2, “Compositions and methods for treatment of neurological symptoms associated with alcohol-withdrawal and for convulsive seizure” (Oregon Health & Science University, priority 2005, dated 2019).

Tests used:
[1] = target: T1, L-type Ca^2+ channel (Mus musculus, UniProt Q01815); assay: Reversibility of inhibition of L-type Ca^2+ channel mediated arterial contraction after wash-out
T1 construct: KCl-induced contraction in isolated arteries; from tissue; host or cells: mouse mesenteric arteries
Procedure: (§1) Contractions obtained after 30 min. incubation with the test compounds (left portion of graph), and after a 60-min. wash-out (right portion of graph).
(§2) Moreover, farnesylamine is likely to be metabolized through pathways different from those involved in farnesol clearance.

[2] = test system: withdrawal seizures in alcohol-dependent mice; assay: Predicted anti-seizure activity; assay type: in vivo, mouse; parameters: key: la = long-acting; The ++ farnesol activity was arbitrary; conditions: for Predicted anti-seizure activity: long-acting (la): duration flag in brackets
[3] = target: T2, human recombinant monoamine oxidase A (Homo sapiens, UniProt P21397); assay: Monoamine oxidase substrate test; assay type: in vitro ADME; conditions: rat liver mitochondrial membranes and human recombinant monoamine oxidase A and B
T2 sequence (P21397 1-527): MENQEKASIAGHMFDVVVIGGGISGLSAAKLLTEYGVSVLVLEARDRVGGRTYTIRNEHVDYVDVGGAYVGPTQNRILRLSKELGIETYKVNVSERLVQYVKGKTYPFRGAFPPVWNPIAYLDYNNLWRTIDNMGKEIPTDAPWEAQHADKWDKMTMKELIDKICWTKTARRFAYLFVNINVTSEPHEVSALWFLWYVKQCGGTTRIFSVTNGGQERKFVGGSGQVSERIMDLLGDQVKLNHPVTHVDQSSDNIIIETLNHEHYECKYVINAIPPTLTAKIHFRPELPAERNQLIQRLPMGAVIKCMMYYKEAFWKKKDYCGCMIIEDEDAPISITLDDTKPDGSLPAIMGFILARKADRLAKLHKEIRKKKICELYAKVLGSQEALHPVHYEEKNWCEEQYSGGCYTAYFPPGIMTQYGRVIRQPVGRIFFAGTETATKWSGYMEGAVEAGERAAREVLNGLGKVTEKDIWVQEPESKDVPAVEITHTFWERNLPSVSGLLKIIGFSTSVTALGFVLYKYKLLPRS
Excerpt: as §2

[4] = target: T3, smooth muscle voltage-gated, L-type (Cav1.2 or α1C subunit) Ca^2+ channels (Mus musculus, UniProt Q01815); assay: KCl-induced contraction in isolated arteries; conditions: FIG. 5 / FIG. 6 (25 μM)
T3 construct: KCl-induced contraction in isolated arteries; from tissue; host or cells: mouse mesenteric arteries
Procedure: as §1
(§3) To identify compounds with enhanced L-type Ca^2+ channel blocker activity, several compounds were either purchased or synthesized, and then tested for their ability to inhibit: (1) KCl-induced contraction in isolated arteries; (2) KCl-induced Ca^2+ signaling in fura-2 loaded arteries; and (3) KCl-induced Ca^2+ signaling in fura-2 loaded PC12 cells, all using art-recognized methods established in the applicants' laboratories (Roullet, 1993, 1994, 1995, 1997; De Lima, 1999). Arteries express smooth muscle voltage-gated, L-type (Cav1.2 or α1C subunit) Ca^2+ channels, whereas PC12 cells constitutively express the neuronal voltage-gated, L-type (Cav1.3) α1D subunit (Ertel, 2000).

[5] = Storage stability; assay type: physicochemical; conditions: −20° C., pure form or ethanol solutions (typically 25 mM)
Procedure: According to the present invention, the synthesis of geranylresorcinol (GR) (4) is based on the condensation of geranyl bromide (1) and 3-hydroxyphenyl benzoate (2), followed by alkaline cleavage of the formed ester (3). The method generates pure GR with an overall yield of 40%. The compound is stable when stored at −20° C. either in its pure form or in ethanol solutions (typically prepared at 25 mM). Long-term storage may be associated with some darkening of the product, as typically observed with electron-rich phenols, but it is not associated with significant loss of activity (on arteries).

[6] = test system: microsomal FolDH; assay: Recognition by microsomal FolDH; assay type: in vitro ADME
[7] = test system: ADH; assay: Metabolism / substrate recognition by ADH; assay type: in vitro ADME
[8] = target: T4, neuronal voltage-gated, L-type (Cav1.3) α1D subunit Ca^2+ channel (Rattus norvegicus, UniProt P27732); assay: KCl-induced Ca^2+ signaling in fura-2 loaded PC12 cells; assay type: cell-based
T4 construct: KCl-induced intracellular Ca^2+ signaling in non-NGF treated PC12 cells loaded with fura-2; endogenous in cells; host or cells: PC12 cells (non-NGF treated)
T4 sequence (P27732 whole entry): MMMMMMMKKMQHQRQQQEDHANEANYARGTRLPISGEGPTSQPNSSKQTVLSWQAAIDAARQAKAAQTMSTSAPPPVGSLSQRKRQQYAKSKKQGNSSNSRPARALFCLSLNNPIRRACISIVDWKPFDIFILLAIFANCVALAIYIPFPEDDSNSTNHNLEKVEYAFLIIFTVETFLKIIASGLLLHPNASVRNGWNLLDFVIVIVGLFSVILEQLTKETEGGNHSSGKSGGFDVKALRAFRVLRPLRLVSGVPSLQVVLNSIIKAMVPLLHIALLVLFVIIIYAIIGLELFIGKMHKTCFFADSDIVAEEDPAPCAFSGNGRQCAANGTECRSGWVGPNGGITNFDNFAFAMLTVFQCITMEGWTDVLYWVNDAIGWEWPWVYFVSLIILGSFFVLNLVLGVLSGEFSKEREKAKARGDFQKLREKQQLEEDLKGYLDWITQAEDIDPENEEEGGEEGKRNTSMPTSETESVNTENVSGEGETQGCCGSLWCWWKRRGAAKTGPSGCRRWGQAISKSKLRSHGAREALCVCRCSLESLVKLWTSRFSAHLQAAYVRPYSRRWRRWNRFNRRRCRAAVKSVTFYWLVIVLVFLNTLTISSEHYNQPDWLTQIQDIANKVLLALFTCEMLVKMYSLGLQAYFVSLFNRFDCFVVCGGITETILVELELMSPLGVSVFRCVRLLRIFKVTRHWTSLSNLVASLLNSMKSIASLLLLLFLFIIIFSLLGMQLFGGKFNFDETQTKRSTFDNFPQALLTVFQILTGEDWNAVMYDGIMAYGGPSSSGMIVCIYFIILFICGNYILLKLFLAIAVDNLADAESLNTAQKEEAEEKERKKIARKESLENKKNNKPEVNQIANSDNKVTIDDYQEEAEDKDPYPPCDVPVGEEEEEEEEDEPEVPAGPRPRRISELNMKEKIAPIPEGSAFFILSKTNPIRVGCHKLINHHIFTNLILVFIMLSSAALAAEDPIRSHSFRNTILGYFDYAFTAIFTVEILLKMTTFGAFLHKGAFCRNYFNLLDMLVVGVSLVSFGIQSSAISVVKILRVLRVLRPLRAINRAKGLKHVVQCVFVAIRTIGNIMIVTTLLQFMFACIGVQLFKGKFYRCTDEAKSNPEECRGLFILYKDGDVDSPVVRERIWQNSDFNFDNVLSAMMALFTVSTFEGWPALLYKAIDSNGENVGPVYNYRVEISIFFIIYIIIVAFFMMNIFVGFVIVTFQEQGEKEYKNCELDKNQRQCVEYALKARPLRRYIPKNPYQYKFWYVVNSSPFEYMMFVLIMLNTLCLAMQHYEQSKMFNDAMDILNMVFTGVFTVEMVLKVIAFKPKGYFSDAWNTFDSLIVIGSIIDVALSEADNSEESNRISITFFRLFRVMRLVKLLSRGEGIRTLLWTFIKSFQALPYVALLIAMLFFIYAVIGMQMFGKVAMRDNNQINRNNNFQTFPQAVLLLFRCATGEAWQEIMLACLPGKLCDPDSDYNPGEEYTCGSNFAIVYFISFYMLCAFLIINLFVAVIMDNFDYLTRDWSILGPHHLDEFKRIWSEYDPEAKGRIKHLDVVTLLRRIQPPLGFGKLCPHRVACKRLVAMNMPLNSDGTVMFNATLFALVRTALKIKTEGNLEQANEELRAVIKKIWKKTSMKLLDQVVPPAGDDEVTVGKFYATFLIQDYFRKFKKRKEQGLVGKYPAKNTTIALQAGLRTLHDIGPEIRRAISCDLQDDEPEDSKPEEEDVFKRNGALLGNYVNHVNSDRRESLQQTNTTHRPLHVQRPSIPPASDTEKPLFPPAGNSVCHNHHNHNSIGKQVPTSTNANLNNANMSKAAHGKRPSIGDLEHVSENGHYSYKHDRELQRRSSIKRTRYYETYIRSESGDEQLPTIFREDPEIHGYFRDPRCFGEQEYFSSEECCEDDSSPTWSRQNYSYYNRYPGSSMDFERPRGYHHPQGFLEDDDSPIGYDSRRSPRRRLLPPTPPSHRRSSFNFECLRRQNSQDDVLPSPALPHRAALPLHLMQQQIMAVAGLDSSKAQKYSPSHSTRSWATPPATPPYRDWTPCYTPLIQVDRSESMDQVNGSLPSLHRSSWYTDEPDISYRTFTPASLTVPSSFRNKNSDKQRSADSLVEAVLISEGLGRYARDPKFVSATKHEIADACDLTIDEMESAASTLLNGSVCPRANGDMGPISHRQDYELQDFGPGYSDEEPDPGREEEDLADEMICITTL
T4 sequence (P54290 25-944 partner limits assumed): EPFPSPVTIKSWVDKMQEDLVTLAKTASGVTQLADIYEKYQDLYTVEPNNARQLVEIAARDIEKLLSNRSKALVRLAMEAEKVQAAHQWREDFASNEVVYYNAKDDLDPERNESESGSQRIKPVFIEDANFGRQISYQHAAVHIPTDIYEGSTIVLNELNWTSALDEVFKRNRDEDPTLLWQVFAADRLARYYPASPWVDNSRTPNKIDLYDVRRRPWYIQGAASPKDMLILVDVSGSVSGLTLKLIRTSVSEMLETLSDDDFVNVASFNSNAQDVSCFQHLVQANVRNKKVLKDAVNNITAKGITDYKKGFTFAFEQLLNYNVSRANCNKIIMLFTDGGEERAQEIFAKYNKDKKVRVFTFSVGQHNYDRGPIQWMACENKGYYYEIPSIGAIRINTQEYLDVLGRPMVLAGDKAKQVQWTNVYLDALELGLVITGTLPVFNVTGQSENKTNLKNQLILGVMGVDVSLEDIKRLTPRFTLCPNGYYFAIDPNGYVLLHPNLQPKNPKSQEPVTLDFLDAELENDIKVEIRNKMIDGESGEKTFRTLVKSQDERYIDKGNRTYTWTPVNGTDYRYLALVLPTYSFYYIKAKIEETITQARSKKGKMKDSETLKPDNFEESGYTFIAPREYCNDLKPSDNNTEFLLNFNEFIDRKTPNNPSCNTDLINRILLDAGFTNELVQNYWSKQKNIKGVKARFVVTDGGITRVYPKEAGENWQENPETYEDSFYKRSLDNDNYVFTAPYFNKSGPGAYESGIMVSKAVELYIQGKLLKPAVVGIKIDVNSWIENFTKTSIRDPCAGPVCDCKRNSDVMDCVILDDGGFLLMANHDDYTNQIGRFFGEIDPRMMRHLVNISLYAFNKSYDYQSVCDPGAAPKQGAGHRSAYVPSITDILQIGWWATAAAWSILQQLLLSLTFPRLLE
T4 sequence (P54290 945-1091 partner limits assumed): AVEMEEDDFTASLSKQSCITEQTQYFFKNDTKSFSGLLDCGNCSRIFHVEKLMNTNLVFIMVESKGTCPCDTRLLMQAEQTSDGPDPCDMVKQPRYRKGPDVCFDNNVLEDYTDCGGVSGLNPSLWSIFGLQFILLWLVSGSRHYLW
Excerpt: According to particular aspects of the present invention, the alcohol group is essential for activity. Additionally, the activity of farnesol metabolites on neuronal voltage-gated L-type Ca^2+ channels was investigated. […] The Ca^2+ channel activity is expressed as % inhibition of KCl-induced intracellular Ca^2+ signaling in non-NGF differentiated PC12 cells loaded with fura-2 (see Materials and Methods under Example 2). The assayed molecules are: FPP—farnesyl pyrophosphate; FOH—all-trans farnesol; FCHO—all-trans farnesal; and FCOOH—all-trans farnesoic acid (prepared by Dr. McDougal).
as §3
Ca^2+ channel activity is expressed as % inhibition of KCl-induced intracellular Ca^2+ signaling in non-NGF treated PC12 cells loaded with fura-2.

[9] = target: T4, neuronal voltage-gated, L-type (Cav1.3) α1D subunit Ca^2+ channel; conditions: PC12 cells; cited from earlier work
[10] = target: T5, N-type Ca^2+ channel (α1B subunit) (Homo sapiens, UniProt Q00975); assay: Patch-clamp on HEK cells transfected with human α1B (Cav2.2) subunits; assay type: cell-based; conditions: at 5 min; Hp=−100 mV; 20 mM Ba^2+
T5 construct: expressed in transfected cells; host or cells: HEK cells
Procedure: FIGS. 4A and 4B show neuronal (α1D subunit) L-type Ca^2+ channel (Ca^2+ signaling in fura-2 loaded PC12 cells) (FIG. 4A); on neuronal (α1B subunit) N-type Ca^2+ channel (α1B-transfected HEK cells; as in Roullet, 1999) (FIG. 4B). Current-voltage relationship (IV) recording conditions were: holding potential (hp)=−100 mV; 20 mM Ba^2+. Inhibition of N-type currents was ˜90% at 5 min.
Experiments (FIG. 4) using patch-clamp techniques and HEK cells transfected with human α1B (Cav2.2) subunits further indicate that, like farnesol, retinol also blocks N-type calcium channels. FIGS. 4A and 4B show, according to preferred aspects of the present invention, the effect of all-trans retinol on: neuronal (α1D subunit) L-type Ca^2+ channel (Ca^2+ signaling in fura-2 loaded PC12 cells) (FIG. 4A); an on neuronal (α1B subunit) N-type Ca^2+ channel (α1B-transfected HEK cells; as in Roullet, 1999) (FIG. 4B). IV recording conditions were: Hp=−100 mV; 20 mM Ba^2+. Inhibition of N-type currents was ˜90% at 5 min.

[11] = test system: ADH; conditions: cited from earlier work
[12] = target: T6, voltage-gated L-type Ca^2+ channels (Homo sapiens, UniProt Q13936); conditions: cited from earlier work
T6 construct: host or cells: arteries / vascular smooth muscle cells

| reversibility of effect compared with farnesol [1] | inhibition at 25 µM ([1]; 25 μM, 30 min incubation, 60-min. wash-out, read-out: inhibition of arterial contraction still observed after wash-out) | storage stability [5] | recognition by microsomal FolDH [6] | substrate for ADH [7] | activity on neuronal L-type Ca^2+ channels compared with all-trans farnesol ([8]; non-NGF PC12 cells, fura-2, FIG. 1 / FIG. 3) | Inhibition of N-type currents [10] | IC50 ([8]; read-out: IC50 on L-type Ca^2+ channels) | Structure (SMILES) | Predicted anti-seizure activity: long-acting (la) [2] | substrate for monoamine oxidase [3] | activity on KCl-induced arterial contraction [4] | activity on neuronal L-type Ca^2+ channels (literature / prior studies) [9] | metabolism by class IV ADH [11] | activity on Ca^2+ channels / smooth muscle L-type channels (literature / prior studies) [12] | Predicted anti-seizure activity ([2]; based on effect on L-type Ca^2+ channels, CLogP and reversibility or ADH-FolDH recognition) |
| --- | --- | --- | --- | --- | --- | --- | --- | --- | --- | --- | --- | --- | --- | --- | --- |
| relatively less reversible | ~80% | – | – | – | – | – | – | CC(C)=CCC/C(C)=C/CC/C(C)=C/CN [Farnesylamine, (2E,6E)-3,7,11-trimethyldodeca-2,6,10-trien-1-amine] | la | specific substrate for monoamine oxidase A | more potent inhibitor of arterial contractions than farnesol | – | – | – | – |
| less reversible | – | stable | not recognized by microsomal FolDH | very poor substrate for ADH | strongly inhibits | – | – | CC(C)=CCC/C(C)=C/COc1cccc(O)c1 [Geranylresorcinol, (E)-3-(3,7-dimethylocta-2,6-dienyloxy)phenol] | la | – | strongly inhibits | – | – | – | – |
| significantly less reversible | – | – | – | – | – | ~90% | 5 µM | CC1=C(/C=C/C(C)=C/C=C/C(C)=C/CO)C(C)(C)CCC1 [Retinol, (2E,4E,6E,8E)-3,7-dimethyl-9-(2,6,6-trimethylcyclohex-1-enyl)nona-2,4,6,8-tetraen-1-ol] | la | – | – | blocks efficiently | metabolized by class IV ADH | blocks efficiently | ++ |
